US11104690B2, “Indazole derivatives useful as inhibitors of diacylglyceride O-acyltransferase 2” (Merck Sharp & Dohme Corp., priority 2016, dated 2021)

Target: Human DGAT2 (Homo sapiens (Human), UniProt Q96PD7)
Test: DGAT2 Enzymatic Activity Assay (triolein formation, LC/MS/MS)
Assay type: biochemical
Conditions: hDGAT2 Sf-9 membrane prep; 25 μM diolein, 10 μM oleoyl-CoA; room temperature
Procedure: Sf-9 insect cells were maintained in Grace's insect cell culture medium with 10% heated-inactivated fetal bovine serum, 1% Pluronic F-68 and 0.14 μg/m Kanamycine sulfate in Erlenmeyer flasks at 28° C. in a shaker incubator. After infection with untagged hDGAT2 baculovirus at multiplicity of infection (MOI) 0.1 for 48 hours, cells were harvested. Cell pellets were suspended in buffer containing 10 mM Tris-HC (pH 7.5), 1 mM EDTA (pH 8.0), 250 mM sucrose and Complete Protease Inhibitor Cocktail (Roche Diagnostics Corp., Indianapolis, Ill.), and sonicated on ice. Membrane fractions were isolated by ultracentrifugation (100,000×g pellet), resuspended in the same buffer, and frozen (−80° C.) for later use. The protein concentration was determined with the BCA Protein Assay kit (Pierce Biotechnology Inc., Rockford, Ill.). Expression of protein levels was analyzed by immunoblotting with goat polyclonal DGAT2 antibody C-15 and donkey anti-goat IgG HRP (Santa Cruz Biotechnology, Inc., Santa Cruz, Calif.) followed by detection with ECL reagent (GE Healthcare, Piscataway, N.J.).
LC/MS/MS analyses were performed using Thermal Fisher's LX4-TSQ Vantage system. This system consists of an Agilent binary high-performance liquid chromatography (HPLC) pumps and a TSQ Vantage triple quadrupole MS/MS instrument. For each sample, 2 μL samples from the top organic layer of in-plate liquid-liquid extraction were injected onto a Thermo Betabasic C4 column (2.1 mm×20 mm, 5 μm particle size). The samples were then eluted using the following conditions; mobile phase: MeOH/water with 0.1% ammonium format=92/8 (v/v), flow rate: 1 mL/min, temperature: 25 C. Data was acquired in positive mode using a heated electrospray ionization (HESI) interface. The operational parameters for the TSQ Vantage MS/MS instrument were a spray voltage of 3000 V, capillary temperature of 280° C., vaporizer temperature 400° C., shealth gas 60 arbitrary unit, Aux gas 40 arbitrary units, S-lens 113 and collision gas 0.16 Pascals. […] (SRM) chromatograms of triolein (Q1: 902.9>Q3:602.3) and internal standard ([…]) were collected for 40 sec. The peak area was integrated by Xcalibur Quan software. The ratio between the triolein generated in the reaction and spiked in internal standard was used to generate percentage inhibition and IC50 values. Compound percentage inhibition was calculated by the following formula: Inhibition %=1−[(compound response−low control)/(high control−low control)]×100%. Potent compounds were titrated and IC50 were calculated by 4 parameter sigmoidal curve fitting formula.
DGAT2 activity was determined by measuring the amount of enzymatic product triolein (1,2,3-Tri(cis-9-octadecenoyl)glycerol) using the membrane prep mentioned above. The assay was carried out in deep well 384 plates in a final volume of 40 μL at room temperature. The assay mixture contained the following: assay buffer (100 mM Tris.Cl, pH 7.0, 20 mM MgCl2, 5% ethanol), 25 μM of diolein, 10 μM of oleoyl-CoA and 10 ng/μL of DGAT2 membrane.

Human DGAT2, sequence (Q96PD7 whole entry): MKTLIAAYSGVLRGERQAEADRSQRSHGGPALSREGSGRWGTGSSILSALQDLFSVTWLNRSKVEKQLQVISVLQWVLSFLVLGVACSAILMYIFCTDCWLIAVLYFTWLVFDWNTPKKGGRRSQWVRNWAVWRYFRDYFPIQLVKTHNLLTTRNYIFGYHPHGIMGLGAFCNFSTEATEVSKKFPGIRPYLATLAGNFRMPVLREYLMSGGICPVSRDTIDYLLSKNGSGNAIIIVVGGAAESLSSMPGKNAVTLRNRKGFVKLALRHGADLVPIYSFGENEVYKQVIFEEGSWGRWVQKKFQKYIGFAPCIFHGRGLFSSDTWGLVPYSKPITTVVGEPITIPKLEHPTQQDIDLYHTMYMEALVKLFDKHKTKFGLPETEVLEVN

CC1(NC(=O)c2ccc3c(-c4cccc(C5CC5)c4)nn(-c4ccc(F)cc4)c3c2)CCS(=O)(=O)C1 (single isomer, unassigned) [Example 145-A, 3-(3-cyclopropylphenyl)-1-(4-fluorophenyl)-N-(3-methyl-1,1-dioxidotetrahydrothiophen-3-yl)-1H-indazole-6-carboxamide]
IC50: 2.1 nM

O=C(N[C@H](CO)c1ccc(C(F)(F)F)nc1)c1ccc2c(-c3ccccc3Cl)nn(-c3ccc(F)cc3)c2c1 [Example 5, 3-(2-chlorophenyl)-1-(4-fluorophenyl)-N-{(1S)-2-hydroxy-1-[6-(trifluoromethyl)pyridin-3-yl]ethyl}-1H-indazole-6-carboxamide]
IC50: 45 nM

CC(c1cc(-c2ccccc2)[nH]n1)N(C)C(=O)c1ccc2c(-c3ccccc3Cl)nn(-c3ccc(F)cc3)c2c1 (racemic) [Example 27, 3-(2-chlorophenyl)-1-(4-fluorophenyl)-N-methyl-N-[1-(5-phenyl-1H-pyrazol-3-yl)ethyl]-1H-indazole-6-carboxamide]
IC50: 301 nM

O=C(NC(CO)C1CC1)c1ccc2c(-c3ccccc3Cl)nn(-c3ccc(F)cc3)c2c1 (racemic) [Example 78, 3-(2-chlorophenyl)-N-(1-cyclopropyl-2-hydroxyethyl)-1 (4-fluorophenyl)-1H-indazole-6-carboxamide]
IC50: 353 nM

O=C(NC1CCC(F)(F)C1)c1ccc2c(-c3ccccc3Cl)nn(-c3ccc(F)cc3)c2c1 (racemic) [Example 64, 3-(2-chlorophenyl)-N-(3,3-difluorocyclopentyl)-1-(4-fluorophenyl)-1H-indazole-6-carboxamide]
IC50: 132 nM

O=C(NCCS(=O)(=O)NCc1ccccc1)c1ccc2c(-c3ccccc3Cl)nn(-c3ccc(F)cc3)c2c1 [Example 54, N-[2-(benzylsulfamoyl)ethyl]-3-(2-chlorophenyl)-1-(4-fluorophenyl)-1H-indazole-6-carboxamide]
IC50: 121 nM

CCOC(=O)c1coc(-n2nc(-c3ccccc3Cl)c3ccc(C(=O)NC4(C)CCS(=O)(=O)C4)cc32)n1 (racemic) [Example 188, ethyl 2-{3-(2-chlorophenyl)-6-[(3-methyl-1,1-dioxidotetrahydrothiophen-3-yl)carbamoyl]-1H-indazol-1-yl}-1,3-oxazole-4-carboxylate]
IC50: 95 nM

CC1(NC(=O)c2ccc3c(-c4ccccc4Cl)nn(-c4cscn4)c3c2)CCS(=O)(=O)C1 (stereo not shown) [Example 179, 3-(2-Chlorophenyl)-N-(3-methyl-1,1-dioxidotetrahydrothiophen-3-yl)-1-(thiazol-4-yl)-1H-indazole-6-carboxamide]
IC50: 285 nM

C[C@@H](NC(=O)c1ccc2c(-c3ccccc3Cl)nn(-c3ccc(F)cc3)c2c1)[C@@H](O)c1ccccc1 [Example 106, 3-(2-chlorophenyl)-1-(4-fluorophenyl)-N-[(1R,2S)-2-hydroxy-1-methyl-2-phenylethyl]-1H-indazole-6-carboxamide]
IC50: 832 nM

O=C(NC1CNCCS(=O)(=O)C1)c1ccc2c(-c3ccccc3Cl)nn(-c3ccc(F)cc3)c2c1 (racemic) [Example 102, 3-(2-chlorophenyl)-N-(1,1-dioxido-1,4-thiazepan-6-yl)-1-(4-fluorophenyl)-1H-indazole-6-carboxamide]
IC50: 179 nM

O=C(N[C@H]1CCC[C@H]1O)c1ccc2c(-c3ccccc3Cl)nn(-c3ccc(F)cc3)c2c1 [Example 96, 3-(2-chlorophenyl)-1-(4-fluorophenyl)-N-[(1S,2R)-2-hydroxycyclopentyl]-1H-indazole-6-carboxamide]
IC50: 43 nM

CSCC[C@@H](CO)NC(=O)c1ccc2c(-c3ccccc3Cl)nn(-c3ccc(F)cc3)c2c1 [Example 93, 3-(2-chlorophenyl)-1-(4-fluorophenyl)-N-[(1S)-1-(hydroxymethyl)-3-(methylsulfanyl)propyl]-1H-indazole-6-carboxamide]
IC50: 503 nM

CC(C)n1nc(-c2ccccc2Cl)c2ccc(C(=O)NC3CCS(=O)(=O)C3)cc21 (stereo not shown) [Example 169, 3-(2-chlorophenyl)-N-(1,1-dioxidotetrahydrothiophen-3-yl)-1-(1-methylethyl)-1H-indazole-6-carboxamide]
IC50: 364 nM

COC[C@H](C)NC(=O)c1ccc2c(-c3ccccc3Cl)nn(-c3ccc(F)cc3)c2c1 [Example 12, 3-(2-chlorophenyl)-1-(4-fluorophenyl)-N-[(1S)-2-methoxy-1-methylethyl]-1H-indazole-6-carboxamide]
IC50: 85 nM

CO[C@@H]1C[C@H](NC(=O)c2ccc3c(-c4ccccc4Cl)nn(-c4ccc(F)cc4)c3c2)[C@H](O)[C@H](C)O1 [Example 111, 3-(2-chlorophenyl)-1-(4-fluorophenyl)-N-((2S,3S,4S,6S)-3-hydroxy-6-methoxy-2-methyltetrahydro-2H-pyran-4-yl)-1H-indazole-6-carboxamide]
IC50: 194 nM

NS(=O)(=O)CCNC(=O)c1ccc2c(-c3ccccc3Cl)nn(-c3ccc(F)cc3)c2c1 [Example 20, 3-(2-chlorophenyl)-1-(4-fluorophenyl)-N-(2-sulfamoylethyl)-1H-indazole-6-carboxamide]
IC50: 148 nM

COc1cc(-c2nn(-c3ccc(F)cc3)c3cc(C(=O)NC4(C)CCS(=O)(=O)C4)ccc23)c(Cl)cn1 (single isomer, unassigned) [Example 141-A, 3-(5-chloro-2-methoxypyridin-4-yl)-1-(4-fluorophenyl)-N-(3-methyl-1,1-dioxidotetrahydrothiophen-3-yl)-1H-indazole-6-carboxamide]
IC50: 4.8 nM

O=C(NC1CC[S+]([O-])C1)c1ccc2c(-c3ccccc3Cl)nn(-c3ccc(F)cc3)c2c1 (single isomer, unassigned) [Example 58-A, 3-(2-chlorophenyl)-1-(4-fluorophenyl)-N-(1-oxidotetrahydrothiophen-3-yl)-1H-indazole-6-carboxamide]
IC50: 668 nM

CC1(NC(=O)c2ccc3c(-c4cccc(C#N)c4)nn(-c4ccc(F)cc4)c3c2)CCS(=O)(=O)C1 (stereo not shown) [Example 117, 3-(3-cyanophenyl)-1-(4-fluorophenyl)-N-(3-methyl-1,1-dioxidotetrahydrothiophen-3-yl)-1H-indazole-6-carboxamide]
IC50: 7 nM

N#Cc1cccc(-c2nn(-c3ccc(F)cc3)c3cc(C(=O)NC4CCS(=O)(=O)C4)ccc23)c1 (stereo not shown) [Example 116, 3-(3-cyanophenyl)-N-(1,1-dioxidotetrahydrothiophen-3-yl)-1-(4-fluorophenyl)-1H-indazole-6-carboxamide]
IC50: 359 nM

CC1(NC(=O)c2ccc3c(-c4ccccc4Cl)nn(-c4nnc(C5CC5)s4)c3c2)CCS(=O)(=O)C1 (racemic) [Example 190, 3-(2-chlorophenyl)-1-(5-cyclopropyl-1,3,4-thiadiazol-2-yl)-N-(3-methyl-1,1-dioxidotetrahydrothiophen-3-yl)-1H-indazole-6-carboxamide]
IC50: 45 nM

Cc1nnc(-c2cccc(-c3nn(-c4ccc(F)cc4)c4cc(C(=O)NC5(C)CCS(=O)(=O)C5)ccc34)c2)o1 (racemic) [Example 164, 1-(4-fluorophenyl)-N-(3-methyl-1,1-dioxidotetrahydrothiophen-3-yl)-3-[3-(5-methyl-1,3,4-oxadiazol-2-yl)phenyl]-1H-indazole-6-carboxamide]
IC50: 28 nM

CC(C)[C@@H](CO)NC(=O)c1ccc2c(-c3ccccc3Cl)nn(-c3ccc(F)cc3)c2c1 [Example 69, 3-(2-chlorophenyl)-1-(4-fluorophenyl)-N-[(1S)-1-(hydroxymethyl)-2-methylpropyl]-1H-indazole-6-carboxamide]
IC50: 8 nM

CC(C)[C@@H](CO)NC(=O)c1ccc2c(-c3cccc(C4CC4)c3)nn(-c3ccc(F)cn3)c2c1 [Example 124, 3-(3-cyclopropylphenyl)-1-(5-fluoropyridin-2-yl)-N-[(1S)-1-(hydroxymethyl)-2-methylpropyl]-1H-indazole-6-carboxamide]
IC50: 4.4 nM

O=C(NCC1CCS(=O)(=O)C1)c1ccc2c(-c3ccccc3Cl)nn(-c3ccc(F)cc3)c2c1 (racemic) [Example 29, 3-(2-chlorophenyl)-N-[(1,1-dioxidotetrahydrothiophen-3-yl)methyl]-1-(4-fluorophenyl)-1H-indazole-6-carboxamide]
IC50: 65 nM
